31 compounds from patent publication US20130317029A1 (PORTOLA PHARMACEUTICALS, INC., priority 2010, published 2013) can be followed below.

Some results are limits rather than exact numbers.

For this assay, the target named is T1, full length active recombinant SYK enzyme (Homo sapiens, UniProt P43405).
T1 construct: full length active recombinant SYK enzyme (Millipore, Calif.); purchased Millipore
Briefly: Inhibition of Syk tyrosine phosphorylation activity (LANCE TR-FRET kinase assay). Type of assay: biochemical. The text has this: This example illustrates methods for evaluating the compounds of the invention, along with results obtained for such assays. The in vitro and in vivo human Syk activities of the inventive compounds can be determined by various procedures known in the art, such as a test for their ability to inhibit the activity of human plasma Syk. […] The IC50 value is the concentration (in nM) of the compound required to provide 50% inhibition of human Syk proteolytic activity.
Potency of candidate molecules for inhibiting Syk tyrosine phosphorylation activity is assessed by measuring the ability of a test compound to inhibit Syk-mediated tyrosine phosphorylation of a Syk-specific substrate.
SYK tyrosine phosphorylation activity is measured using the LANCE™ Technology developed by Perkin Elmer Life and Analytical Sciences (Boston, Mass.). LANCE™ refers to homogeneous time resolved fluorometry applications using techniques such as time-resolved fluorescence resonance energy transfer assay (TR-FRET) (see generally for procedures in Perkin Elmer Application Note—How to Optimize a Tyrosine Kinase Assay Using Time Resolved Fluorescence-Based LANCE Detection, wwww.perkinelmer.com/lifesciences). The assay principle involves detection of a phosphorylated substrate using energy transfer from a phosphospecific europium-labeled antibody to streptavidin-allophycocyanin as an acceptor.
To test the ability of candidate molecules to inhibit SYK tyrosine phosphorylation activity, molecules are reconstituted in 30% DMSO and serially diluted 1:3 with the final dilution containing DMSO in the absence of the candidate molecule. The final DMSO concentration in the assay is 3%. Kinase assays are performed as a two part reaction. The first reaction is a kinase reaction and which comprises of a candidate molecule, full length active recombinant SYK enzyme (Millipore, Calif.) and biotin-labeled SYK-specific substrate biotin-[…]-OH. The second reaction involves termination of the kinase reaction and the simultaneous addition of the detection reagents-europium-labeled anti-phosphotyrosine reagent (Eu-W1024-PY100, Perkin Elmer, Boston, Mass.) and Streptavidin-Allophycocyanin detection reagent (SA-APC, Prozyme, Calif.). The kinase reaction is performed in a black U-bottom 96-well microtitre plate. The final reaction volume is 50 μL and contains a final concentration of 1 nM active SYK enzyme, 550 nM SYK-substrate, and 100 μM ATP diluted in a buffer containing 50 mM Tris pH 7.5, 5 mM MgCl2, and 1 mM DTT. The reaction is allowed to proceed for 1 hour at room temperature. The quench buffer contains 100 mM Tris pH 7.5, 300 mM NaCl2, 20 mM EDTA, 0.02% Brij35, and 0.5% BSA. The detection reagents are added to the reaction mixture at the following dilutions-1:500 for Eu-W1024-PY100 and 1:250 for SA-APC. The kinase reaction is terminated by the addition of 50 μL quench buffer containing the detection reagents. The detection is allowed to proceed for 1 hr at room temperature. Detection of the phosphorlated substrate in the absence and presence of inhibitors is measured in the TR-FRET instrument, Analyst HT (Molecular Probes, Sunnyvale, Calif.) and the condition for measurements are set up using CriterionHost Release 2.0 (Molecular Probes, Sunnyvale, Calif.). The settings used are a follows: excitation 360 nm, emission 665-7.5 nm, beam splitter 350 nm 50/50, flash 100 pulses, delay 60 us, integration 400 us, z-height 2 mm. Inhibition of SYK-tyrosine kinase activity is calculated as the maximum response observed in the presence of inhibitor, compared to that in the absence of inhibitor. IC50s were derived by non-linear regression analysis.
The term IC50 denotes the concentration that gives 50% inhibition. In the case of `COc1nc(N[C@@H](C(N)=O)C(C)C)nc(Nc2ccc3ncccc3c2)c1C(N)=O` [Example 15, (R)-2-(1-amino-3-methyl-1-oxobutan-2-ylamino)-4-methoxy-6-(quinolin-6-ylamino)pyrimidine-5-carboxamide], the IC50 was 10 to 100 nM. Next, `CC[C@@H](Nc1nc(Nc2ccc3ncccc3c2)c(C(N)=O)c(OC)n1)C(N)=O` [Example 16, (R)-2-(1-amino-1-oxobutan-2-ylamino)-4-methoxy-6-(quinolin-6-ylamino)pyrimidine-5-carboxamide]: 10 to 100 nM; `CC[C@@H](Nc1nc(Nc2ccc3c(ccc[n+]3[O-])c2)c(C(N)=O)c(OC)n1)C(N)=O` [Example 17, (R)-6-(2-(1-amino-1-oxobutan-2-ylamino)-5-carbamoyl-6-methoxypyrimidin-4-ylamino)quinoline 1-oxide]: 10 to 100 nM. Next, `CC(C)C[C@@H](Nc1nc(Nc2ccc(-n3cccn3)cc2)c(C(N)=O)c(=O)[nH]1)C(N)=O` [Example 18]: 1 to 10 nM.

On to `CC(C)[C@@H](Nc1nc(Nc2ccc(-n3cccn3)cc2)c(C(N)=O)c(=O)[nH]1)C(N)=O` [Example 19], for which the IC50 was in the range of 1 to 10 nM. As for `CC(C)[C@@H](Nc1nc(Nc2ccc3ncccc3c2)c(C(N)=O)c(=O)[nH]1)C(N)=O` [Example 20, (R)-2-(1-amino-3-methyl-1-oxobutan-2-ylamino)-6-oxo-4-(quinolin-6-ylamino)-1,6-dihydropyrimidine-5-carboxamide], the figure is 1 to 10 nM. As for `CC[C@@H](Nc1nc(Nc2ccc3ncccc3c2)c(C(N)=O)c(=O)[nH]1)C(N)=O` [Example 21, (R)-2-(1-amino-1-oxobutan-2-ylamino)-6-oxo-4-(quinolin-6-ylamino)-1,6-dihydropyrimidine-5-carboxamide], the figure is less than 1 nM; as for `CC(C)[C@H](CN)Nc1nc(Nc2cccc(-n3nccn3)c2)c(C(N)=O)c(=O)[nH]1` [Example 22, (R)-4-(3-(2H-1,2,3-triazol-2-yl)phenylamino)-2-(1-amino-3-methylbutan-2-ylamino)-6-oxo-1,6-dihydropyrimidine-5-carboxamide], 1 to 10 nM. As for `CNCCNc1nc(Nc2cccc(-n3nccn3)c2)c(C(N)=O)c(=O)[nH]1` [Example 23, 4-(3-(2H-1,2,3-triazol-2-yl)phenylamino)-2-(2-(methylamino)ethylamino)-6-oxo-1,6-dihydropyrimidine-5-carboxamide], the figure is 10 to 100 nM. In the case of `CC[C@@H](Nc1nc(Nc2ccc(-n3cccn3)cc2)c(C(N)=O)c(=O)[nH]1)C(N)=O` [Example 24], the concentration for half-maximal inhibition (IC50) lay within 1 to 10 nM.

For `CC(C)C[C@@H](Nc1nc(Nc2ccc3[nH]ncc3c2)c(C(N)=O)c(=O)[nH]1)C(N)=O` [Example 25, (R)-4-(1H-indazol-5-ylamino)-2-(1-amino-4-methyl-1-oxopentan-2-ylamino)-6-oxo-1,6-dihydropyrimidine-5-carboxamide], the IC50 is less than 1 nM. As for `CC(C)[C@@H](Nc1nc(Nc2ccc3[nH]ncc3c2)c(C(N)=O)c(=O)[nH]1)C(N)=O` [Example 26, (R)-4-(1H-indazol-5-ylamino)-2-(1-amino-3-methyl-1-oxobutan-2-ylamino)-6-oxo-1,6-dihydropyrimidine-5-carboxamide], the figure is less than 1 nM; as for `CC(C)C[C@@H](Nc1nc(Nc2cccc(-c3ncccn3)c2)c(C(N)=O)c(=O)[nH]1)C(N)=O` [Example 27, (R)-2-(1-amino-4-methyl-1-oxopentan-2-ylamino)-6-oxo-4-(3-(pyrimidin-2-yl)phenylamino)-1,6-dihydropyrimidine-5-carboxamide], 1 to 10 nM; as for `CC(C)[C@@H](Nc1nc(Nc2cccc(-c3ncccn3)c2)c(C(N)=O)c(=O)[nH]1)C(N)=O` [Example 28, (R)-2-(1-amino-3-methyl-1-oxobutan-2-ylamino)-6-oxo-4-(3-(pyrimidin-2-yl)phenylamino)-1,6-dihydropyrimidine-5-carboxamide], 10 to 100 nM. As for `CC(C)C[C@@H](Nc1nc(Nc2ccc3ncsc3c2)c(C(N)=O)c(=O)[nH]1)C(N)=O` [Example 29], the figure is less than 1 nM; as for `CC(C)[C@@H](Nc1nc(Nc2ccc3ncsc3c2)c(C(N)=O)c(=O)[nH]1)C(N)=O` [Example 30], less than 1 nM; as for `CC[C@@H](Nc1nc(Nc2ccc3ncsc3c2)c(C(N)=O)c(=O)[nH]1)C(N)=O` [Example 31], less than 1 nM. Next, `CC(C)C[C@@H](Nc1nc(Nc2cccc(-n3cccn3)c2)c(C(N)=O)c(=O)[nH]1)C(N)=O` [Example 32]: 1 to 10 nM.

`CC(C)[C@@H](Nc1nc(Nc2cccc(-n3cccn3)c2)c(C(N)=O)c(=O)[nH]1)C(N)=O` [Example 33]: the half-inhibitory concentration (IC50) was in the range of 1 to 10 nM. As for `CC[C@@H](Nc1nc(Nc2cccc(-n3cccn3)c2)c(C(N)=O)c(=O)[nH]1)C(N)=O` [Example 34], the figure is 1 to 10 nM. For `CC(C)C[C@@H](Nc1nc(Nc2ccc3cn[nH]c3c2)c(C(N)=O)c(=O)[nH]1)C(N)=O` [Example 35, (R)-4-(1H-indazol-6-ylamino)-2-(1-amino-4-methyl-1-oxopentan-2-ylamino)-6-oxo-1,6-dihydropyrimidine-5-carboxamide], the IC50 is less than 1 nM.

For the compound `CC[C@@H](Nc1nc(Nc2ccc3cn[nH]c3c2)c(C(N)=O)c(=O)[nH]1)C(N)=O` [Example 36], the half-maximal inhibitory concentration (IC50) was less than 1 nM.

With `NC(=O)c1c(Nc2cccc(-n3nccn3)c2)nc(N[C@@H]2CCCNC2)[nH]c1=O` [Example 37], the IC50 was less than 1 nM.

In the case of `NC(=O)c1c(Nc2cccc(-c3ncccn3)c2)nc(N[C@@H]2CCCC[C@@H]2N)[nH]c1=O` [Example 38], the concentration for half-maximal inhibition (IC50) was in the range of 1 to 10 nM. Regarding `CC[C@@H](Nc1nc(Nc2cccc(OC)c2)c(C(N)=O)c(=O)[nH]1)C(N)=O` [Example 39, (R)-2-(1-amino-1-oxobutan-2-ylamino)-4-(3-(methoxy)phenylamino)-6-oxo-1,6-dihydropyrimidine-5-carboxamide], the half-inhibitory concentration (IC50) was 1 to 10 nM. As for `CC(C)C[C@@H](Nc1nc(Nc2cccc(-c3ccccn3)c2)c(C(N)=O)c(=O)[nH]1)C(N)=O` [Example 40, (R)-2-(1-amino-4-methyl-1-oxopentan-2-ylamino)-6-oxo-4-(3-(pyridin-2-yl)phenylamino)-1,6-dihydropyrimidine-5-carboxamide], the figure is 1 to 10 nM; as for `CC[C@@H](Nc1nc(Nc2cccc(-c3ccccn3)c2)c(C(N)=O)c(=O)[nH]1)C(N)=O` [Example 41, (R)-2-(1-amino-1-oxobutan-2-ylamino)-6-oxo-4-(3-(pyridin-2-yl)phenylamino)-1,6-dihydropyrimidine-5-carboxamide], 1 to 10 nM; as for `NC(=O)c1c(Nc2ccc(S(N)(=O)=O)cc2)nc(NC2CC2)[nH]c1=O` [Example 42, 2-(cyclopropylamino)-6-oxo-4-(4-sulfamoylphenylamino)-1,6-dihydropyrimidine-5-carboxamide], 10 to 100 nM. As for `CC(=O)N(C)c1ccc(Nc2nc(NC3CC3)[nH]c(=O)c2C(N)=O)cc1` [Example 43, 2-(cyclopropylamino)-4-(4-(N-methylacetamido)phenylamino)-6-oxo-1,6-dihydropyrimidine-5-carboxamide], the figure is more than 1000 nM; as for `NC(=O)c1c(NC2CC2)nc(Nc2ccc(S(N)(=O)=O)cc2)[nH]c1=O` [Example 44, 4-(cyclopropylamino)-6-oxo-2-(4-sulfamoylphenylamino)-1,6-dihydropyrimidine-5-carboxamide], more than 1000 nM; as for `NC(=O)c1c(NC2CCC2)nc(Nc2ccc(S(N)(=O)=O)cc2)[nH]c1=O` [Example 45, 4-(cyclobutylamino)-6-oxo-2-(4-sulfamoylphenylamino)-1,6-dihydropyrimidine-5-carboxamide], more than 1000 nM.
